Assay: Polymorphic stability on storage
Assay type: physicochemical
Settings: kept at 40° C.±2° C. and relative humidity 75%±5% for 6 months; samples prepared in examples 1 to 5

O=C(CCCCCCC(=O)Nc1ccccc1)NO [crystalline vorinostat form I, N-hydroxy-N′-phenyl-octanediamide]
polymorphic stability (conversion over time to other polymorphs): no conversion over time to other polymorphs

Source: patent US20110269838A1, “NOVEL PROCESSES AND PURE POLYMORPHS” (priority 2008, published 2011)
